{"source": "PubChem BioAssay AID488877", "about": "(The Scripps Research Institute Molecular Screening Center, 2010)", "test_system": "Vero cells SARS-CoV infected, viability, ATP luminescence", "experiment": "PubChem AID 488877", "note": "Calls of active or inactive are those of the source. No rule for the calls is given here."}
{"molecule": "CC(C)(C)NC(=O)C(c1cccnc1)N(C(=O)c1ccco1)c1ccc(C(C)(C)C)cc1", "note": "(stereo unspecified)", "values": [{"measurement": "EC50", "result": "> 10 µM (inactive)"}]}
